The values below come from US6211168A, “Methods for preparation and use of 1α,24 (S)-dihydroxy vitamin D2” (Bone Care International, Inc, priority 1995, dated 2001).

Data set [1] relates to postmenopausal osteoporotic out-patients. The data set is described as follows: preventive treatment of bone mass loss in postmenopausal osteoporotic women. The format is in vivo, human. Conditions: at or above 1.0 μg/day, 24 to 36 months. As for the experimental part: A clinical study is conducted with postmenopausal osteoporotic out-patientshaving ages between 55 and 75 years. The study involves up to 120 patients randomly divided into three treatment groups and continues for 24 to 36 months. Two of the treatment groups receive constant dosages of 1α,24(S)-dihydroxy vitamin D2 (u.i.d.; two different dose levels at or above 1.0 μg/day) and the other group receives a matching placebo. All patients maintain a normal intake of dietary calcium (500 to 800 mg/day) and refrain from using calcium supplements. Efficacy is evaluated by pre-and post-treatment comparisons of the patient groups with regard to (a) total body calcium retention, and (b) radial and spinal bone mineral density as determined by dual-photon absorptiometry (DPA) or dual-energy x-ray absorptiometry (DEXA). Safety is evaluated by comparisons of urinary hydroxyproline excretion, serum and urine calcium levels, creatinine clearance, blood urea nitrogen, and other routine determinations.

Data set [2] has as its system human cancer cell lines BCA-1 or ZR-75-1 (breast) and COL-1 (colon). The data set is described as follows: antiproliferative activity in human cancer cell lines (thymidine incorporation). The format is cell-based. The following applies: dose-response. As for the experimental part:
Dose-response studies are conducted with 1α,24(S)-(OH)2 D2 in a battery of human cancer cell lines. These cell lines include, but are not limited to, the following: BCA-1 or ZR-75-1 (breast) and COL-1 (colon), as described by Shieh, H. L. et al. Chem. Biol. Interact., vol. 81, pp. 35-55 (1982). In this study, appropriate solvents are used as negative controls.
Background: Uptake of a labelled nucleoside into DNA is a usual measure of proliferation.

Data set [3] concerns dermatitis (contact and ectopic) patients. The data set is described as follows: dermatological testing, topical treatment of dermatitis. Conditions: ointment 10 μg per gram, twice daily, four to six weeks. It counts as in vivo, human. The protocol:
Compositions containing 1α,24(S)-dihydroxy vitamin D2 are evaluated for therapeutic efficacy of the composition in the topical treatment of dermatitis (contact and ectopic). The composition evaluated is an ointment containing 10 μg of 1α,24-dihydroxy vitamin D2 per gram of ointment in a petrolatum-almond oil base. […] The patients are treated in an out-patient clinic. They are instructed to use the preparation two times a day.
The ointment is as far as possible applied to a single lesion, or to an area of the disease. The ointment and its container are weighed before the treatment starts and returned with any unused contents for reweighing at the end of the treatment.
The area of the lesion treated is estimated and recorded, and the lesion is photographed as required, together with suitable "control" lesions. The latter are preferably lesions of similar size and stage of development, either in the vicinity of the treated lesion or symmetrically contralateral. Relevant details of the photographic procedure are recorded so as to be reproduced when the lesions are next photographed (distance, aperture, angle, background, etc.). The ointment is applied twice daily and preferably left uncovered. The "control" lesions are left untreated, but if this is not possible, the treatment used on them is noted. […]

On to `C=C1/C(=C\C=C2/CCC[C@]3(C)[C@@H]([C@H](C)/C=C/[C@@](C)(O)C(C)C)CC[C@@H]23)C[C@@H](O)C[C@@H]1O` [1α,24(S)-(OH)2 D2, 1α,24(S)-dihydroxy vitamin D2], for which, in data set [1], the “incidence of hypercalcemia, hypercalciuria or other metabolic disturbance” value was “insignificant incidence of hypercalcemia or hypercalciuria, or any other metabolic disturbance”; the “total body calcium, radial and spinal bone densities relative to placebo” value is “significantly higher total body calcium, and radial and spinal bone densities relative to patients treated with placebo”. The “antiproliferative activity, inhibition of thymidine incorporation” value in data set [2] is reported as “potent (and reversible) antiproliferative activity”. In addition, the “lesion severity score (erythema, scaling, thickness; 0 to 3)” value in data set [3] is listed as “lower scores than the control lesions”.
